Results from US11298367B2, “Prodrugs of substituted triazole derivatives and uses thereof” (Bayer Aktiengesellschaft, priority 2017, dated 2022).
≈ marks a conversion by molar mass, not a printed value.

Assays:
human V1a receptor [1] = biological target: T1, human V1a receptor (Homo sapiens, UniProt P37288); assay: Cellular in vitro assay for vasopressin receptor activity (V1a, aequorin luminescence); assay type: cell-based; conditions: for ratio IC50 hV2/hV1a: selectivity ratio hV2/hV1a; for IC50: CHO cell line with human V1a receptor, [Arg8]-vasopressin at EC50, values are for the prodrug as such, read-out: IC50 hV1a
T1 construct: expressed in transfected cells; host or cells: CHO K1 (Chinese hamster ovary), also stably transfected with a modified aequorin
Description: (§1) B-1. Cellular In Vitro Assay for Determining Vasopressin Receptor Activity
(§2) The identification of agonists and antagonists of the V1a and V2 vasopressin receptors from humans, rats and dogs as well as the quantification of the activity of the compounds of the invention is carried out using recombinant cell lines. These cell lines originally derive from a hamster's ovary epithelial cell (Chinese Hamster Ovary, CHO K1, ATCC: American Type Culture Collection, Manassas, Va. 20108, USA). The test cell lines constitutively express the human, rat or dog V1a or V2 receptors. In case of the Gaq-coupled V1a receptors, cells are also stably transfected with a modified form of the calcium-sensitive photoproteins aequorin (human and rat V1a) or obelin (dog V1a), which, after reconstitution with the cofactor coelenterazine, emit light when there are increases in free calcium concentrations [Rizzuto R, Simpson A W, Brini M, Pozzan T, Nature 358, 325-327 (1992); Illarionov B A, Bondar V S, Illarionova V A, Vysotski E S, Gene 153 (2), 273-274 (1995)]. The resulting vasopressin receptor cells react to stimulation of the recombinantly expressed Via receptors by intracellular release of calcium ions, which can be quantified by the resulting photoprotein luminescence. The Gs-coupled V2 receptors are stably transfected into cell lines expressing the gene for firefly luciferase under control of a CRE-responsible promoter. Activation of V2 receptors induces the activation of the CRE-responsive promoter via cAMP increase, thereby inducing the expression of firefly luciferase. The light emitted by photoproteins of V1a cell lines as well as the light emitted by firefly luciferase of V2 cell lines corresponds to the activation or inhibition of the respective vasopressin receptor. The bioluminescence of the cell lines is detected using a suitable luminometer [Milligan G, Marshall F, Rees S, Trends in Pharmacological Sciences 17, 235-237 (1996)].
Vasopressin V1a Receptor Cell Lines:
On the day before the assay, the cells are plated out in culture medium (DMEM/F12, 2% FCS, 2 mM glutamine, 10 mM HEPES, 5 μg/ml coelenterazine) in 384-well microtiter plates and kept in a cell incubator (96% humidity, 5% v/v CO2, 37C). On the day of the assay, test compounds in various concentrations are placed for 10 minutes in the wells of the microtiter plate before the agonist [Arg^8]-vasopressin at EC50 concentration is added. The resulting light signal is measured immediately in a luminometer.
(§3) Table 1A below lists individual IC50 values for the compounds of the invention (including racemic mixtures as well as separated enantiomers) that were obtained from cell lines transfected with the human V1a or V2 receptor. This means these IC50 values are the values for the prodrug and not for the underlying respective drug as the prodrug is mainly stable under the assay conditions.

human V1a receptor [2] = biological target: T1, human V1a receptor; assay: Cellular in vitro assay for verification of prodrug conversion into drug (with/without alkaline phosphatase); assay type: cell-based; conditions: human V1a CHO cells
Description: B-4. Cellular In Vitro Assay for Verification of Prodrug Conversion into Drug
To verify the conversion of prodrugs into the respective drugs, the prodrugs are incubated with and without alkaline phosphatase. Cleavage of the phosphate moiety by alkaline phosphatase converts the prodrug into the underlying respective drug [Coleman J. E., Annu. Rev. Biophys. Biomol. Struct. 1992, 21, 441-483]. As prodrug and underlying respective drug show different IC50 values, the value of the prodrug after alkaline phosphatase treatment resembles the IC50 of the respective drug. The determination of IC50 values of compounds of the invention at the human V1a receptor is carried out using a recombinant cell line. The cell line originally derives from a hamster's ovary epithelial cell (Chinese Hamster Ovary, CHO K1, ATCC: American Type Culture Collection, Manassas, Va. 20108, USA). The test cell line constitutively expresses the human V1a receptor. Cells are also stably transfected with a modified form of the calcium-sensitive photoprotein aequorin which, after reconstitution with the cofactor coelenterazine, emits light upon increase in free calcium concentration [Rizzuto R, Simpson A W, Brini M, Pozzan T, Nature 358, 325-327 (1992); Illarionov B A, Bondar V S, Illarionova V A, Vysotski E S, Gene 153 (2), 273-274 (1995)]. The resulting vasopressin receptor cell reacts to stimulation of the recombinantly expressed V1a receptor by intracellular release of calcium ions, which can be quantified by the resulting luminescence of photoprotein. The bioluminescence of the cell line is detected using a suitable luminometer [Milligan G, Marshall F, Rees S, Trends in Pharmacological Sciences 17, 235-237 (1996)].
On the day before the assay, the cells are seeded in culture medium (DMEM/F12, 2% FCS, 2 mM glutamine, 10 mM HEPES, 5 μg/ml coelenterazine) in 384-well microtiter plates and kept in a cell incubator (96% humidity, 5% v/v CO2, 37C). On the day of the assay, 100 μl of test compounds at a concentration of 100 μM are incubated for 15 minutes with 500 units alkaline phosphatase at 37° C. in tyrode buffer (20 mM HEPES, 130 mM NaCl, 5 mM KCl, 5 mM NaHCO3, 2 mM MgCl2, pH 7,4). After incubation compounds are immediately diluted and placed for 10 minutes at 37° C. on the before seeded V1a cells. For detection of antagonistic activity of the compounds [Arg^8]-vasopressin at EC50 concentration is added and the resulting light signal is measured immediately in a luminometer.

Solubility = assay type: physicochemical; conditions: 24 h room temperature, max. 500 μg/ml; for solubility at 24 h: thermodynamic from solid
Description: For each substance 0.5-0.6 mg are weighed exactly. In each case, sufficient medium is added to the sample in such a way that a concentration of c=500 μg/ml is obtained. This sample solution is shaken for 24 h at room temperature and 1400 rpm.
A further sample weight of 0.5-0.6 mg is required for the DMSO calibration solution. This sample is filled with DMSO to a concentration of c=600 μg/ml. Two calibration solutions are prepared from this stock solution. In a 2 ml HPLC vial, 1000 μl of DMSO are initially introduced and 34.4 μl of the stock solution are pipetted (c=20 µg/ml). […] of this solution (c=20 μg/ml) are placed in a further 2 ml HPLC vial containing 500 μl of DMSO (c=2.5 μg/ml).
After shaking the test solutions, 230 μl of the supernatant are transferred into a centrifuge tube and centrifuged at 42 000 rpm (223 000 g) for 30 min. 180 μl of the supernatant are then taken and each diluted with DMSO (1:5 sample 1; 1:100 sample 2), and transferred to HPLC vials. The two calibration solutions and the dilute sample solutions are analyzed by HPLC. Quantification is performed over the corresponding peak areas.
Distilled water; trifluoroacetic acid (Merck; 1.08262.0100); acetonitrile (HPLC grade); DMSO (Merck; 8.02912.2500).
Fluka buffer, Order No. 33643 (11.76 g citric acid, 2.57 g sodium chloride and 2.72 g sodium hydroxide).
Fluka buffer, Order No. 33646 (3.52 g potassium dihydrogenphosphate, 7.26 g sodium hydrogen phosphate).
Solution of 6.18 g sodium chloride and 3.96 g sodium dihydrogen phosphate in 1 L distilled water, adjust with 1M aqueous sodium hydroxide solution to pH 7.4.
0.6057 g TRIS was dissolved in 95 ml water, adjust to pH 8.5 with aqueous hydrochloric acid, fill with water until 100 ml volume is reached.

human V2 receptor = biological target: T2, human V2 receptor (Homo sapiens, UniProt P30518); assay: Cellular in vitro assay for vasopressin receptor activity (V2, CRE-luciferase); assay type: cell-based; conditions: CHO cell line with human V2 receptor, [Arg8]-vasopressin at EC50; values are for the prodrug as such; read-out: IC50 hV2
T2 construct: expressed in transfected cells; host or cells: CHO K1 cells expressing firefly luciferase under a CRE-responsive promoter
Description: as §1, §2
Vasopressin V2 Receptor Cell Lines:
On the day before the assay, the cells are plated out in culture medium (DMEM/F12, 2% FCS, 2 mM glutamine, 10 mM HEPES) in 384-well microtiter plates and kept in a cell incubator (96% humidity, 5% v/v CO2, 37C). On the day of the assay, test compounds in various concentrations and the agonist [Arg^8]-vasopressin at EC50 concentration are added together to the wells, and plates are incubated for 3 hours in a cell incubator. Upon addition of the cell lysis reagent Triton™ and the substrate luciferin, luminescence of firefly luciferase is measured in a luminometer.
as §3

[3] = pre-incubation 15 min with 500 units alkaline phosphatase at 37° C., read-out: IC50 with AP
[4] = without alkaline phosphatase, read-out: IC50 without AP
[5] = Tris buffer pH 8.5, pH 8.5, aqueous buffer, pH = 8.5 Tris buffer
[6] = citrate buffer pH 4, pH 4, aqueous buffer, pH = 4 citrate buffer
[7] = PBS buffer pH 7.4, pH 7.4, aqueous buffer, pH = 7.4 PBS buffer

T1 sequence (P37288 whole entry): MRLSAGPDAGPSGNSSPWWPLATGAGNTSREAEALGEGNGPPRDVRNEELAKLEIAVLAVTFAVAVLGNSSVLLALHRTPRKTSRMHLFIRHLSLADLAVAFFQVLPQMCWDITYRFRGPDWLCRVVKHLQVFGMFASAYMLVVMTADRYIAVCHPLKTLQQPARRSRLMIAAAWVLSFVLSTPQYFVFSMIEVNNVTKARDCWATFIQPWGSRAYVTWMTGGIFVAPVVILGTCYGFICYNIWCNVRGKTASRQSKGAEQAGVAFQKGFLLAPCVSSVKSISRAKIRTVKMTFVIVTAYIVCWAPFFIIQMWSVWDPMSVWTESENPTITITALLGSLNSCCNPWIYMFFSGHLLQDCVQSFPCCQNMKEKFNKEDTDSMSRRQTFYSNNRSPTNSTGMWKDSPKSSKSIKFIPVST
T2 sequence (P30518 whole entry): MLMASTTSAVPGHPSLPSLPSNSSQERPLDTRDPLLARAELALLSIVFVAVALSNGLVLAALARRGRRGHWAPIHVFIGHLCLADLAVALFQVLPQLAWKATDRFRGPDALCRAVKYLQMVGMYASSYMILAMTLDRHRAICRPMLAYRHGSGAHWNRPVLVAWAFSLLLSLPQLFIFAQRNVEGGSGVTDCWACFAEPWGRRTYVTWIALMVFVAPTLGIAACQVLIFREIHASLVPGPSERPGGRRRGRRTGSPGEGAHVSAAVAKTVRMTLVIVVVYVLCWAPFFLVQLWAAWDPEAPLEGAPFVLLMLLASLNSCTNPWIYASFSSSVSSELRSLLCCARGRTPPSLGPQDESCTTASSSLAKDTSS

IC50 (human V1a receptor [2]; [3])	IC50 (human V1a receptor [2]; [4])	Solubility (Solubility; pH = 4 citrate buffer)	Solubility (Solubility; pH = 7.0 buffer)	solubility at 24 h (Solubility; phosphate buffer pH 7, pH 7, aqueous buffer, pH = 7.0 buffer)	Compound	ratio IC50 hV2/hV1a (human V1a receptor [1])	solubility at 24 h (Solubility; [5])	solubility at 24 h (Solubility; [6])	IC50 (human V1a receptor [1])	IC50 (human V2 receptor)	solubility at 24 h (Solubility; [7])	ratio IC50 hV2/hV1a (human V1a receptor [1]; Phosphate)
1.35 nM	1.35 nM	not detectable	not detectable		NC(=O)c1nc(Cn2nc(-c3ccc(Cl)cc3)n(C[C@H](O)C(F)(F)F)c2=O)nn1-c1ccccc1C(F)(F)F [Example 6A, 3-({3-(4-Chlorophenyl)-5-oxo-4-[(2S)-3,3,3-trifluoro-2-hydroxypropyl]-4,5-dihydro-1H-1,2,4-triazol-1-yl}methyl)-1-[2-(trifluoromethyl)phenyl]-1H-1,2,4-triazole-5-carboxamide]	41.4	4.3 µg/mL (≈ 7.47 µM)					
1.1 nM	1.7 nM			2.8 µg/mL (≈ 5.15 µM)	NC(=O)c1nc(Cn2nc(-c3ccc(Cl)cc3)n(C[C@H](O)C(F)(F)F)c2=O)nn1-c1ncccc1Cl [Example 8A, 3-({3-(4-Chlorophenyl)-5-oxo-4-[(2S)-3,3,3-trifluoro-2-hydroxypropyl]-4,5-dihydro-1H-1,2,4-triazol-1-yl}methyl)-1-(3-chloropyridin-2-yl)-1H-1,2,4-triazole-5-carboxamide]	38.2	4 µg/mL (≈ 7.36 µM)	5.9 µg/mL (≈ 10.9 µM)				
					NC(=O)c1nc(Cn2nc(-c3ccc(Cl)cc3)n(C[C@H](OP(=O)([O-])[O-])C(F)(F)F)c2=O)nn1-c1ncccc1C(F)(F)F.[Mg+2] [Example 9, Magnesium (2S)-3-[1-({5-carbamoyl-1-[3-(trifluoromethyl)pyridin-2-yl]-1H-1,2,4-triazol-3-yl}-methyl)-3-(4-chlorophenyl)-5-oxo-1,5-dihydro-4H-1,2,4-triazol-4-yl]-1,1,1-trifluoropropan-2-yl Phosphate]	16.1	447 µg/mL	> 500 µg/mL	14 nM	225 nM	> 500 µg/mL	
					NC(=O)c1nc(Cn2nc(-c3ccc(Cl)cc3)n(C[C@H](OP(=O)([O-])O)C(F)(F)F)c2=O)nn1-c1ncccc1Cl.[Na+] [Example 20, Sodium (2S)-3-[1-{[5-carbamoyl-1-(3-chloropyridin-2-yl)-1H-1,2,4-triazol-3-yl]methyl}-3-(4-chlorophenyl)-5-oxo-1,5-dihydro-4H-1,2,4-triazol-4-yl]-1,1,1-trifluoropropan-2-yl Hydrogen Phosphate]		> 500 µg/mL	> 500 µg/mL	39.5 nM	85.5 nM	> 500 µg/mL	2.2
					NC(=O)c1nc(Cn2nc(-c3ccc(Cl)cc3)n(C[C@H](OP(=O)([O-])[O-])C(F)(F)F)c2=O)nn1-c1ncccc1Cl.[Mg+2] [Example 22, Magnesium (2S)-3-[1-{[5-carbamoyl-1-(3-chloropyridin-2-yl)-1H-1,2,4-triazol-3-yl]methyl}-3-(4-chlorophenyl)-5-oxo-1,5-dihydro-4H-1,2,4-triazol-4-yl]-1,1,1-trifluoropropan-2-yl Phosphate]	2.0	> 500 µg/mL	> 500 µg/mL	45 nM	90 nM	> 500 µg/mL	
